Like-named read-outs stand apart in the source and are kept apart here.
Experiments:
[1] = test system: Diabrotica balteata larvae; assay: Control of rootworm: greenhouse tray test on maize, soil application, larval mortality; assay type: in vivo; conditions: 168 h, infested 7 days after application, read-out: Corr. Mortality (%) 5 DAI
Description: (§1) Plastic trays (13×18×11.5 cm) with 4 holes in the bottom were filled with a filter paper and 400 mL Drench soil. 8 maize seeds (2 rows with 4 seeds each) were placed on the soil. Compound solution was applied with a track-sprayer at 200 L/ha. After drying seeds were covered with 200 mL untreated Drench soil and evened. Trays were incubated in a greenhouse chamber (25° C., 50% r.h., 14 h light (>20,000 lux)) and watered daily. 7 days after application each tray was infested with 10 (3 replicates) Diabrotica balteata larvae. After infestation all trays were covered with a plastic lid, which was perforated with 6-9 holes for ventilation. 5 days after infestation the survived larvae were counted. Also assessed was the larval growth (size difference between compound replicates and control). TEFL=Tefluthrin.

[2] = test system: Agrotis ipsilon larvae; assay: Control of cutworm: greenhouse tray test on maize, soil application, larval mortality; assay type: in vivo; conditions: 168 h, infested 7 days after application, read-out: Corr. Mortality (%) 5 DAI
Description: as §1, with “(>20′000” for “(>20,000”, “5 (6” for “10 (3”, “Agrotis ipsilon” for “Diabrotica balteata”

[3] = w/15% Nachurs 6-24-6, 25 ppm AI
[4] = w/15% Nachurs 6-24-6, 100 ppm AI
[5] = w/30% Nachurs 6-24-6, 25 ppm AI
[6] = w/30% Nachurs 6-24-6, 100 ppm AI

## Cc1c(F)c(F)c(COC(=O)[C@@H]2[C@H](/C=C(\Cl)C(F)(F)F)C2(C)C)c(F)c1F (racemic) [TEFL, Tefluthrin]
[1]; no fertilizer, 25 ppm AI
  mortality at 25 ppm: 0%
[1]; no fertilizer, 50 ppm AI
  mortality at 50 ppm: 0%
[1]; no fertilizer, 100 ppm AI
  mortality at 100 ppm: 18%
[1]; no fertilizer, 200 ppm AI
  mortality at 200 ppm: 86%
[1]; no fertilizer, 400 ppm AI
  mortality at 400 ppm: 100%
[1]; [3]
  mortality at 25 ppm: 4%
[1]; w/15% Nachurs 6-24-6, 50 ppm AI
  mortality at 50 ppm: 14%
[1]; [4]
  mortality at 100 ppm: 71%
[1]; w/15% Nachurs 6-24-6, 200 ppm AI
  mortality at 200 ppm: 100%
[1]; w/15% Nachurs 6-24-6, 400 ppm AI
  mortality at 400 ppm: 96%
[1]; [5]
  mortality at 25 ppm: 4%
[1]; w/30% Nachurs 6-24-6, 50 ppm AI
  mortality at 50 ppm: 11%
[1]; [6]
  mortality at 100 ppm: 86%
[1]; w/30% Nachurs 6-24-6, 200 ppm AI
  mortality at 200 ppm: 96%
[1]; w/30% Nachurs 6-24-6, 400 ppm AI
  mortality at 400 ppm: 100%
[2]; no fertilizer, 25 ppm AI
  mortality at 25 ppm: 38%
[2]; no fertilizer, 100 ppm AI
  mortality at 100 ppm: 25%
[2]; no fertilizer, 250 ppm AI
  mortality at 250 ppm: 71%
[2]; no fertilizer, 500 ppm AI
  mortality at 500 ppm: 92%
[2]; no fertilizer, 1000 ppm AI
  mortality at 1000 ppm: 100%
[2]; [3]
  mortality at 25 ppm: 31%
[2]; [4]
  mortality at 100 ppm: 29%
[2]; w/15% Nachurs 6-24-6, 250 ppm AI
  mortality at 250 ppm: 79%
[2]; w/15% Nachurs 6-24-6, 500 ppm AI
  mortality at 500 ppm: 100%
[2]; w/15% Nachurs 6-24-6, 1000 ppm AI
  mortality at 1000 ppm: 100%
[2]; [5]
  mortality at 25 ppm: 25%
[2]; [6]
  mortality at 100 ppm: 29%
[2]; w/30% Nachurs 6-24-6, 250 ppm AI
  mortality at 250 ppm: 79%
[2]; w/30% Nachurs 6-24-6, 500 ppm AI
  mortality at 500 ppm: 96%
[2]; w/30% Nachurs 6-24-6, 1000 ppm AI
  mortality at 1000 ppm: 100%

Source: patent publication US11236025B2, “Methods for improving control of insects and related compositions” (Syngenta Participations AG, priority 2013, dated 2022)
